From US9930890B2 (priority 2010, dated 2018)

Columns and labels:
[1] = physchem
[2] = tested on: Plasmopara viticola; experiment: Plasmopara test (grapevine)/protective; format: in vivo; details: grapevine young plants, protective spray, active ingredient concentration 10 ppm, evaluation 6 days after inoculation; 0% = control, 100% = no infection
Experimental: Plasmopara Test (Grapevine)/Protective
To produce an appropriate active ingredient formulation, 1 part by weight of active ingredient is mixed with the specified amounts of solvent and emulsifier, and the concentrate is diluted with water to the desired concentration.
To test for protective efficacy, young plants are sprayed with the active ingredient formulation at the stated application rate. After the spray coating has dried on, the plants are inoculated with an aqueous spore suspension of Plasmopara viticola and then remain in an incubation cabin at approx. 20° C. and 100% relative air humidity for 1 day. Subsequently, the plants are placed in a greenhouse at approx. 21° C. and approx. 90% air humidity for 4 days. The plants are then moistened and placed in an incubation cabin for 1 day.
Evaluation follows 6 days after the inoculation. 0% means an efficacy which corresponds to that of the control, whereas an efficacy of 100% means that no infection is observed.
In this test, the following inventive compounds show, at an active ingredient concentration of 10 ppm, an efficacy of 70% or more: […]

[3] = tested on: Peronospora brassicae; experiment: Peronospora test (oilseed rape seeds)/seed treatment; format: in vivo; details: seed treatment, dose 50 g/dt, infected leaf area per plant after 7 days incubation, 0% = control, 100% = no disease
Experimental: Peronospora Test (Oilseed Rape Seeds)/Seed Treatment
The test was conducted under greenhouse conditions.
Oilseed rape seeds treated with an inventive active compound or a combination of inventive active compounds dissolved in N-methyl-2-pyrrolidone and diluted with water to the desired dose were sown in 6*6 cm vessels. The vessels contain 4 cm of a 1:1 mixture of steam-treated field soil and sand. The plants grew at 10° C.
14-day-old plants were inoculated with an aqueous spore suspension of Peronospora brassicae. The vessels containing the plants were incubated in a greenhouse at a temperature of 15° C. and a relative air humidity of 100% for 7 days.
The assessment of the test included the evaluation of the infected leaf area per plant. 0% means an efficiency corresponding to that of the control, while an efficiency of 100% means that no disease is observed.

[4] = for logp [a]: pH 2.7; for logp [b]: pH 7.8
[5] = tested on: Phytophthora infestans; format: in vivo; details: tomato plants, protective spray, active ingredient concentration 100 ppm, evaluation 7 days after inoculation; 0% = control, 100% = no infection

C[Si](C)(C)C#CCOc1ccccc1C1CC(c2csc(C3CCN(C(=O)Cn4nc(C(F)F)cc4C(F)F)CC3)n2)=NO1 (centres unmarked) [I-1, 2-[3,5-Bis(difluoromethyl)-1H-pyrazol-1-yl]-1-(4-{4-[5-(2-{[3-(trimethylsilyl)prop-2-yn-1-yl]oxy}phenyl)-4,5-dihydro-1,2-oxazol-3-yl]-1,3-thiazol-2-yl}piperidin-1-yl)ethanone] showed a chromatographic logP ([1]; pH 2.7) of 4.71 and a chromatographic logP ([1]; pH 7.8) of 4.58.
In the case of CON=Cc1ccccc1C1CC(c2csc(C3CCN(C(=O)Nc4cc(Cl)ccc4C)CC3)n2)=NO1 (centres unmarked) [I-41, N-(5-Chloro-2-methylphenyl)-4-[4-(5-{2-[(methoxyimino)methyl]phenyl}-4,5-dihydro-1,2-oxazol-3-yl)-1,3-thiazol-2-yl]piperidine-1-carboxamide], the chromatographic logP ([1]; pH 2.7) is reported as 3.95 and the Eff. % [2] is reported as 81%.
CC(C)(C)OC(=O)Nc1ccc(C2CC(c3csc(C4CCN(C(=O)Cn5nc(C(F)F)cc5C(F)F)CC4)n3)=NO2)cc1 (centres unmarked) [I-17, tert-Butyl (4-{3-[2-(1-([3,5-bis(difluoromethyl)-1H-pyrazol-1-yl]acetyl}piperidin-4-yl)-1,3-thiazol-4-yl]-4,5-dihydro-1,2-oxazol-5-yl)phenyl)carbamate] gave a chromatographic logP ([1]; pH 2.7) of 3.45 and a chromatographic logP ([1]; pH 7.8) of 3.46.
For CS(=O)(=O)Oc1ccccc1C1CC(c2csc(C3CCN(C(=O)Cn4nc(C(F)F)cc4C(F)F)CC3)n2)=NO1 (centres unmarked) [I-124], the Eff. % [3] was 100%, the Eff. % [2] was 100% and the “logp [a]” value [4] was 2.86[a],. The “logp [b]” value [4] was 2.86[b] and the Eff. % [5] was 100%.
With CCS(=O)(=O)Oc1ccccc1C1CC(c2csc(C3CCN(C(=O)Cn4nc(C(F)F)cc4C(F)F)CC3)n2)=NO1 (centres unmarked) [I-65] the Eff. % [3] was 90%, the Eff. % [2] was 100% and the “logp [a]” value [4] was 3.1[a],. The “logp [b]” value [4] was 3.09[b] and the Eff. % [5] was 100%.
For CON=Cc1ccccc1C1CC(c2csc(C3CCN(C(=O)Cn4nc(C(F)F)cc4C(F)F)CC3)n2)=NO1 (centres unmarked) [I-26, 2-{3-[2-(1-{[3,5-Bis(difluoromethyl)-1H-pyrazol-1-yl]acetyl}piperidin-4-yl)-1,3-thiazol-4-yl]-4,5-dihydro-1,2-oxazol-5-yl}benzaldehyde O-methyloxime], the chromatographic logP ([1]; pH 2.7) was 3.59 and the Eff. % [2] was 100%.
In the case of N#CCOc1cccc(F)c1C1CC(c2csc(C3CCN(C(=O)Cn4nc(C(F)F)cc4C(F)F)CC3)n2)=NO1 (centres unmarked) [I-113], the Eff. % [2] is reported as 100%, the “logp [a]” value [4] is reported as 2.87[a], and the “logp [b]” value [4] is reported as 2.88[b]. The Eff. % [5] was 85%.
In the case of CS(=O)(=O)Oc1cccc(Cl)c1C1CC(c2csc(C3CCN(C(=O)Cn4nc(C(F)F)cc4C(F)F)CC3)n2)=NO1 (centres unmarked) [I-102], the Eff. % [2] is reported as 100%, the “logp [a]” value [4] is reported as 3.2[a], and the “logp [b]” value [4] is reported as 3.09[b]. It also gave an Eff. % [5] of 75%.
With CSCOc1ccccc1C1CC(c2csc(C3CCN(C(=O)Cn4nc(C(F)(F)F)cc4C)CC3)n2)=NO1 (centres unmarked) [I-120] the Eff. % [2] was 95%, the “logp [a]” value [4] was 3.59[a], and the “logp [b]” value [4] was 3.59[b]. It also gave an Eff. % [5] of 89%.
With O=C(Cn1nc(C(F)F)cc1C(F)F)N1CCC(c2nc(C3=NOC(c4ccccc4OS(=O)(=O)C4CC4)C3)cs2)CC1 (centres unmarked) [I-64] the Eff. % [2] was 100%, the “logp [a]” value [4] was 3.24[a], and the “logp [b]” value [4] was 3.32[b]. It also gave an Eff. % [5] of 100%.
In the case of Cc1cc(C(F)(F)F)nn1CC(=O)N1CCC(c2nc(C3=NOC(c4ccccc4OS(C)(=O)=O)C3)cs2)CC1 (racemic) [I-62], the Eff. % [3] is reported as 90%, the Eff. % [2] is reported as 100% and the “logp [a]” value [4] is reported as 3.07[a],. For the same compound, the “logp [b]” value [4] was 2.98[b] and the Eff. % [5] was 89%.
For N#CCN(C=O)c1ccccc1C1CC(c2csc(C3CCN(C(=O)Cn4nc(C(F)F)cc4C(F)F)CC3)n2)=NO1 (centres unmarked) [I-121], the Eff. % [2] was 98%, the “logp [a]” value [4] was 2.62[a], and the “logp [b]” value [4] was 2.55[b]. For the same compound, the Eff. % [5] was 100%.
Cc1cc(C(F)(F)F)nn1CC(=O)N1CCC(c2nc(C3=NOC(c4ccccc4C=NO)C3)cs2)CC1 (mixture of isomers) [I-38] gave an Eff. % [3] of 86%, an Eff. % [2] of 95% and an Eff. % [5] of 100%.
With N#CCOc1ccc(C2CC(c3csc(C4CCN(C(=O)Cn5nc(C(F)F)cc5C(F)F)CC4)n3)=NO2)cc1 (centres unmarked) [I-81] the Eff. % [2] was 99%, the “logp [a]” value [4] was 2.89[a], and the “logp [b]” value [4] was 2.8[b]. It also gave an Eff. % [5] of 100%.
In the case of Cc1cc(C(F)(F)F)nn1CC(=O)N1CCC(c2nc(C3=NOC(c4ccccc4OCC#N)C3)cs2)CC1 (centres unmarked) [I-140], the Eff. % [2] is reported as 100%, the “logp [a]” value [4] is reported as 2.97[a], and the “logp [b]” value [4] is reported as 2.98[b]. The Eff. % [5] was 84%.
For C#CCN(C=O)c1ccccc1C1CC(c2csc(C3CCN(C(=O)Cn4nc(C(F)F)cc4C(F)F)CC3)n2)=NO1 (centres unmarked) [I-117], the Eff. % [2] was 96%, the “logp [a]” value [4] was 2.65[a], and the “logp [b]” value [4] was 2.67[b]. For the same compound, the Eff. % [5] was 79%.
With O=C(Oc1ccccc1C1CC(c2csc(C3CCN(C(=O)Cn4nc(C(F)F)cc4C(F)F)CC3)n2)=NO1)c1cccc(F)c1 (centres unmarked) [I-129] the Eff. % [2] was 98%, the “logp [a]” value [4] was 3.76[a], and the “logp [b]” value [4] was 3.7[b]. The Eff. % [5] was 98%.
In the case of C[Si](C)(C)C#Cc1ccccc1C1CC(c2csc(C3CCN(C(=O)Cn4nc(C(F)F)cc4C(F)F)CC3)n2)=NO1 (centres unmarked) [I-133], the Eff. % [2] is reported as 85%, the “logp [a]” value [4] is reported as 4.78[a], and the “logp [b]” value [4] is reported as 4.79[b]. For the same compound, the Eff. % [5] was 100%.
For C#CCOCc1ccccc1C1CC(c2csc(C3CCN(C(=O)Cn4nc(C(F)(F)F)cc4C)CC3)n2)=NO1 (racemic) [I-46], the Eff. % [2] was 94%, the “logp [a]” value [4] was 3.43[a] and the Eff. % [5] was 94%.
With CCS(=O)(=O)Oc1ccccc1C1CC(c2csc(C3CCN(C(=O)Cn4nc(C(F)(F)F)cc4C)CC3)n2)=NO1 (centres unmarked) [I-119] the Eff. % [2] was 100%, the “logp [a]” value [4] was 3.19[a], and the “logp [b]” value [4] was 3.21[b]. For the same compound, the Eff. % [5] was 89%.
In the case of O=C(Oc1ccccc1C1CC(c2csc(C3CCN(C(=O)Cn4nc(C(F)F)cc4C(F)F)CC3)n2)=NO1)c1ccc(F)cc1 (centres unmarked) [I-132], the Eff. % [2] is reported as 96%, the “logp [a]” value [4] is reported as 3.73[a], and the “logp [b]” value [4] is reported as 3.7[b]. The Eff. % [5] was 100%.
For N#CCCn1cccc1C1CC(c2csc(C3CCN(C(=O)Cn4nc(C(F)F)cc4C(F)F)CC3)n2)=NO1 (centres unmarked) [I-87], the Eff. % [2] was 95%, the “logp [a]” value [4] was 2.71[a], and the “logp [b]” value [4] was 2.64[b]. It also gave an Eff. % [5] of 80%.
For Cc1ccc(C)c(NC(=O)N2CCC(c3nc(C4=NOC(c5ccccc5OS(C)(=O)=O)C4)cs3)CC2)c1 (centres unmarked) [I-74], the Eff. % [2] was 100%, the “logp [a]” value [4] was 3.08[a], and the “logp [b]” value [4] was 3.03[b]. It also gave an Eff. % [5] of 100%.
For CN(C)C(=S)c1ccccc1C1CC(c2csc(C3CCN(C(=O)Cn4nc(C(F)F)cc4C(F)F)CC3)n2)=NO1 (centres unmarked) [I-127], the Eff. % [2] was 96%, the “logp [a]” value [4] was 3.11[a], and the “logp [b]” value [4] was 3.06[b]. The Eff. % [5] was 97%.
With Cc1cc(C(F)(F)F)nn1CC(=O)N1CCC(c2nc(C3=NOC(c4c(Cl)cccc4OS(C)(=O)=O)C3)cs2)CC1 (centres unmarked) [I-103] the Eff. % [2] was 100%, the “logp [a]” value [4] was 3.28[a], and the “logp [b]” value [4] was 3.2[b]. It also gave an Eff. % [5] of 80%.
In the case of Cc1cc(C(F)(F)F)nn1CC(=O)N1CCC(c2nc(C3=NOC(c4ccccc4OS(=O)(=O)C4CC4)C3)cs2)CC1 (racemic) [I-61], the Eff. % [3] is reported as 90%, the Eff. % [2] is reported as 100% and the “logp [a]” value [4] is reported as 3.29[a],. The “logp [b]” value [4] was 3.31[b] and the Eff. % [5] was 89%.
With O=C(Cn1nc(C(F)F)cc1C(F)F)N1CCC(c2nc(C3=NOC(c4cccc(OS(=O)(=O)C5CC5)c4)C3)cs2)CC1 (centres unmarked) [I-83] the Eff. % [2] was 94%, the “logp [a]” value [4] was 3.17[a], and the “logp [b]” value [4] was 3.07[b]. For the same compound, the Eff. % [5] was 98%.
In the case of COCCS(=O)(=O)Cc1ccccc1C1CC(c2csc(C3CCN(C(=O)Cn4nc(C(F)F)cc4C(F)F)CC3)n2)=NO1 (racemic) [I-57], the Eff. % [2] is reported as 90%, the “logp [a]” value [4] is reported as 2.74[a] and the Eff. % [5] is reported as 94%.
For CON=Cc1cccc(F)c1C1CC(c2csc(C3CCN(C(=O)Cn4nc(C(F)F)cc4C(F)F)CC3)n2)=NO1 (mixture of isomers) [I-60], the Eff. % [3] was 95%, the Eff. % [2] was 100% and the “logp [a]” value [4] was 3.49[a],. For the same compound, the “logp [b]” value [4] was 3.38[b] and the Eff. % [5] was 84%.
Compound O=C(Cn1nc(C(F)F)cc1C(F)F)N1CCC(c2nc(C3=NOC(c4ccccc4C=NO)C3)cs2)CC1 (mixture of isomers) [I-4] has an Eff. % [3] of 92%, an Eff. % [2] of 100% and an Eff. % [5] of 100%.
For CON=Cc1ccccc1C1CC(c2csc(C3CCN(C(=O)Cn4nc(C(F)(F)F)cc4C)CC3)n2)=NO1 (mixture of isomers) [I-34], the Eff. % [2] was 87%, the “logp [a]” value [4] was 3.7[a] and the Eff. % [5] was 100%.
